US20220007687A1, “SHELF STABLE LIQUID FLAVORED CONCENTRATE” (DreamPak LLC, priority 2020, published 2022)

How the values were obtained:
[1] = pH of acid solutions with sodium citrate buffer (Example 2); type: physicochemical; conditions: for delta pH: buffered concentrate (Example 2) compared to concentrate without buffer (Example 1); for pH: concentrate: 22 g acid, 2 g sodium citrate, 76 ml water
Protocol: The impact of adding a buffer to solutions of lactic, citric, and malic acid is researched. With each acid, 22 g of the acid is mixed with 2 g of sodium citrate in 76 ml of water, and pH readings of the concentrates are obtained, then 2 ml of the concentrates is diluted in 250 ml of water and the resulting solutions were evaluated for taste and mouthfeel.

[2] = pH of acid solutions in water (Example 1); type: physicochemical; conditions: 22 g acid in 78 ml water; 2 ml of the mixture diluted in 250 ml water
Protocol: The pH, taste, and mouthfeel of lactic, citric, and malic acids are compared. With each acid, 22 g of the acid is mixed in 78 ml of water, then 2 ml of the mixture is diluted in 250 ml of water, and pH readings of the diluted solutions are obtained.

SMILES: CC(O)C(=O)O (stereo not drawn) [Lactic Acid, 2-hydroxypropionic acid]
- delta pH [1]: 1.04
- pH [1]: 2.49
- pH [2]: 1.45

SMILES: O=C(O)CC(O)C(=O)O (stereo not drawn) [Malic Acid, malic acid]
- delta pH [1]: 0.79
- pH [1]: 2.12
- pH [2]: 1.33

SMILES: O=C(O)CC(O)(CC(=O)O)C(=O)O [Citric Acid, citric acid]
- delta pH [1]: 0.87
- pH [1]: 2.02
- pH [2]: 1.15
